Test system: HEK293T cells stably transfected with 8×TBD luciferase reporter and pRLTK
Assay: YAP Reporter Assay (8×TBD firefly luciferase reporter)
Assay type: cell-based
Details: Homo sapiens, HEK-293T; HEK293T 8×TBD reporter cells, 24-hr incubation, top concentration 3 μM, 1:3 dilution, 10 points
Procedure: HEK293T cells stably transfected with 8×TBD luciferase reporter and pRLTK in 384-well plates were treated with the test compounds, starting from 3 μM (final concentration in assay plate), 1:3 dilution, and 10 points in quadruplicates. Post 24-hr incubation with compounds at 37° C. and 5% CO2, cells were lysed and 8×TBD-driven firefly luciferase and control TK-driven renilla luciferase activities were measured using Promega Dual-Luciferase Reporter Assay System.
Reagents: The reagents used for this study are: DMEM: Invitrogen #11960077, Dual-Glo Luciferase Assay System: Promega-E2980, Puromycin Dihydrochloride: Invitrogen-A1113803, 384-well plate: PerkinElmer-6007480, L-GLUTAMINE: Invitrogen-25030164, Hygromycin B: Invitrogen-10687010, and Penicillin-Streptomycin: Merk-TMS-AB2-C
Media: The media used for this assay were: Culture Medium: DMEM+1 ug/mL puromycin+200 ug/mL hygromycin (with 10% FBS+1 mM L-glutamine); and Assay Medium: DMEM (with 10% FBS+1 mM L-glutamine+1×P/S).
Cell Plating: The appropriate media was warmed at 37° C. by water bath: Culture Medium, Assay Medium, 1*D-PBS, 0.05% trypsin-EDTA. The cells were trypsinized after removing all media, then washed with 1* sterile D-PBS and then with 2 ml 0.05% trypsin-EDTA. The cells were then incubated at RT for one minute. Then 10 ml/75 cm2 flask Assay Medium was added to each flask. Using a 10 ml pipette, the cells were then gently resuspended in the media, until the clumps completely disappeared. The cells were then transferred into 50 ml centrifuge tubes and were centrifuged at 800 rpm for 5 mins. The medium was removed and the cells were resuspended with Assay Medium. An aliquot of cells was used to count the cell density (cells/ml). The cell suspension was then diluted with Assay Medium to a concentration of 6×10^4 cells/ml. 50 ul cells suspension was then plated to 384-well plate (PerkinElmer-6007480), 3×10^3 cells/well and the cells were incubated in an incubator at 37° C., 5% CO2.
Compound Treatment: In the afternoon (incubation of the plate with 3-4 hrs), the test compounds were added by Echo, starting from 3 uM (final concentration in the assay plate), 1:3 dilution, 10 points, quadruplicates. The plate was placed at 37° C., 5% CO2 incubator for 24 hrs.
Detection: The Dual-Glo Luciferase Reagent was prepared by transferring the contents of one bottle of Dual-Glo Luciferase Buffer to one bottle of Dual-Glo Luciferase Substrate to create the Dual-Glo Luciferase Reagent. Mixing was performed by inversion until the substrate was thoroughly dissolved. After mixing, the reagent was aliquoted into 15 ml tubes. In the afternoon (24 hrs post compound treatment), the DMEM+ medium in the 384 well plates were aspirated by Microplate Washer.
Measuring firefly luciferase activity: 20 ul Dual-Glo Luciferase Reagent was added to the 384-well plates. The plates were protected from light to prevent interference with the assay. The plates were shaken for 1 min followed centrifuging plates at 1000 rpm for 30 seconds. After waiting at least 10 minutes, the firefly luminescence was measured by Envision.
Measuring renilla luciferase activity: 20 ul Stop-Glo Reagent was added to the 384-well plates. The plates were shaken for 1 min and then centrifuged at 1000 rpm for 30 seconds. After waiting at least 10 minutes, the renilla luminescence was measured by Envision.
Compound IC50 and maximum inhibition on the firefly luciferase and renilla luciferase activities were reported separately.

SMILES	IC50 [nM]
COCC(=O)NCCOCCOCCNC(=O)c1ccc(Nc2ccc(C(F)(F)F)cc2)c(-c2nnn(C)n2)c1 [Compound 64, 3-(2-methyl-2H-tetrazol-5-yl)-N-(4-oxo-2,8,11-trioxa-5-azatridecan-13-yl)-4-((4-(trifluoromethyl)phenyl)amino) benzamide]	100 to 1000
Cn1nnc(-c2cc(C(=O)O)ccc2Nc2cccc(C(F)(F)F)c2)n1 [Compound 4, 3-(2-methyl-2H-tetrazol-5-yl)-4-((3-(trifluoromethyl)phenyl)amino) benzoic acid]	≤ 100
COC(=O)c1ccc(Nc2ccc(C(F)(F)F)cc2)c(-c2nnn(Cc3ccccc3F)n2)c1 [Compound 24, methyl 3-(2-(2-fluorobenzyl)-2H-tetrazol-5-yl)-4-((4-(trifluoromethyl)phenyl)amino) benzoate]	100 to 1000
COC(=O)c1ccc(Nc2cccc(C(F)(F)F)c2)c(-c2nnn(C)n2)c1 [Compound 2, methyl 3-(2-methyl-2H-telrazol-5-yl)-4-((3-(trifluoromethyl)phenyl)amino)benzoate]	≤ 100
O=C(O)c1ccc(Nc2ccc(C(F)(F)F)cc2)c(-c2nnc(C3CC3)s2)c1 [Compound 59, 3-(5-cyclopropyl-1,3,4-thiadiazol-2-yl)-4-((4-(trifluoromethyl)phenyl)amino) benzoic acid]	≤ 100
O=C(O)c1ccc(Nc2ccc(C(F)(F)F)cc2)c(-c2ccc(F)cn2)c1 [Compound 51, 3-(5-fluoro-2-pyridyl)-4-[4-(trifluoromethyl)anilino] benzoic acid]	≤ 100
Nc1cc(-c2cc(C(=O)O)ccc2Nc2ccc(C(F)(F)F)cc2)ccn1 [Compound 30, 3-(2-aminopyridin-4-yl)-4-((4-(trifluoromethyl)phenyl)amino) benzoic acid]	≤ 100
Cn1nnc(-c2cc(C(N)=O)ccc2Nc2ccc(C(F)(F)F)cc2)n1 [Compound 7, 3-(2-methyl-2H-tetrazol-5-yl)-4-((4-(trifluoromethyl)phenyl)amino) benzamide]	≤ 100
COC(=O)c1ccc(Nc2cccc(C(F)(F)F)c2)c(-c2nnn(Cc3ccccc3F)n2)c1 [Compound 26, methyl 3-(2-(2-fluorobenzyl)-2H-tetrazol-5-yl)-4-((3-(trifluoromethyl)phenyl)amino) benzoate]	100 to 1000
O=C(O)c1ccc(Nc2ccc(C(F)(F)F)cc2)c(-c2cscn2)c1 [Compound 41, 3-(thiazol-4-yl)-4-((4-(trifluoromethyl)phenyl)amino) benzoic acid]	≤ 100
Cn1nnc(-c2cc(C(=O)NCCOCCOCCN)ccc2Nc2ccc(C(F)(F)F)cc2)n1 [Compound 44, N-(2-(2-(2-aminoethoxy)ethoxy)ethyl)-3-(2-methyl-2H-tetrazol-5-yl)-4-((4-(trifluoromethyl)phenyl)amino) benzamide]	100 to 1000
Cn1cnc(-c2cc(C(=O)O)ccc2Nc2ccc(C(F)(F)F)cc2)c1 [Compound 28, 3-(1-methyl-1H-imidazol-4-yl)-4-((4-(trifluoromethyl)phenyl)amino) benzoic acid]	≤ 100
COC(=O)c1ccc(Nc2ccc(C(F)(F)F)cc2)c(-c2nnn(C)n2)c1 [Compound 1, methyl 3-(2-methyl-2H-tetrazol-5-yl)-4-((4-(trifluoromethyl)phenyl)amino)benzoate]	≤ 100
COCCC(=O)NCCOCCOCCNC(=O)c1ccc(Nc2ccc(C(F)(F)F)cc2)c(-c2nnn(C)n2)c1 [Compound 65, 3-(2-methyl-2H-tetrazol-5-yl)-N-(5-oxo-2,9,12-trioxa-6-azatetradecan-14-yl)-4-((4-(trifluoromethyl)phenyl)amino) benzamide]	100 to 1000
O=C(O)c1ccc(Nc2ccc(C(F)(F)F)cc2)c(-c2nnn(Cc3ccccc3F)n2)c1 [Compound 25, 3-(2-(2-fluorobenzyl)-2H-tetrazol-5-yl)-4-((4-(trifluoromethyl)phenyl)amino) benzoic acid]	≤ 100
Cn1cnc(-c2cc(C(=O)NS(N)(=O)=O)ccc2Nc2ccc(C(F)(F)F)cc2)c1 [Compound 38, 3-(1-methylimidazol-4-yl)-N-sulfamoyl-4-[4-(trifluoromethyl)anilino] benzamide]	≤ 100

SMILES	IC50 [nM]
O=C(O)c1ccc(Nc2ccc(C(F)(F)F)cc2)c(-c2cocn2)c1 [Compound 57, 3-(oxazol-4-yl)-4-((4-(trifluoromethyl)phenyl)amino) benzoic acid]	≤ 100
O=C(O)c1ccc(Nc2ccc(C(F)(F)F)cc2)c(-c2ncco2)c1 [Compound 61, 3-(oxazol-2-yl)-4-((4-(trifluoromethyl)phenyl)amino) benzoic acid]	≤ 100
Cn1nnc(-c2cc(C(=O)O)ccc2Nc2ccc(C(F)(F)F)cc2)n1 [Compound 3, 3-(2-methyl-2H-tetrazol-5-yl)-4-((4-(trifluoromethyl)phenyl)amino) benzoic acid]	≤ 100
O=C(O)c1ccc(Nc2ccc(C(F)(F)F)cc2)c(-c2nnc(C(F)(F)F)s2)c1 [Compound 58, 4-[4-(trifluoromethyl)anilino]-3-[5-(trifluoromethyl)-1,3,4-thiadiazol-2-yl]benzoic acid]	≤ 100
CNC(=O)c1ccc(Nc2ccc(C(F)(F)F)cc2)c(-c2nnn(C)n2)c1 [Compound 8, N-methyl-3-(2-methyl-2H-tetrazol-5-yl)-4-((4-(trifluoromethyl)phenyl)amino) benzamide]	≤ 100
COC(=O)c1ccc(Nc2ccc(C(F)(F)F)cc2)c(-c2cn(C)cn2)c1 [Compound 33, methyl 3-(1-methyl-1H-imidazol-4-yl)-4-((4-(trifluoromethyl)phenyl)amino)benzoate]	≤ 100
O=C(O)c1ccc(Nc2ccc(C(F)(F)F)cc2)c(-c2cc(F)ccn2)c1 [Compound 49, 3-(4-fluoro-2-pyridyl)-4-[4-(trifluoromethyl)anilino] benzoic acid]	≤ 100
Cn1nnc(-c2cc(C(=O)NS(C)(=O)=O)ccc2Nc2cccc(C(F)(F)F)c2)n1 [Compound 23, 3-(2-methyl-2H-tetrazol-5-yl)-N-(methylsulfonyl)-4-((3-(trifluoromethyl)phenyl)amino) benzamide]	≤ 100
O=C(O)c1ccc(Nc2ccc(C(F)(F)F)cc2)c(-c2nccs2)c1 [Compound 42, 3-(thiazol-2-yl)-4-((4-(trifluoromethyl)phenyl)amino) benzoic acid]	≤ 100
CNC(=O)c1ccc(Nc2cccc(C(F)(F)F)c2)c(-c2nnn(C)n2)c1 [Compound 5, N-methyl-3-(2-methyl-2H-tetrazol-5-yl)-4-((3-(trifluoromethyl)phenyl)amino) benzamide]	≤ 100
O=C(O)c1ccc(Nc2ccc(C(F)(F)F)cc2)c(-c2ccncn2)c1 [Compound 60, 3-pyrimidin-4-yl-4-[4-(trifluoromethyl)anilino] benzoic acid]	100 to 1000
O=C(O)c1ccc(Nc2cccc(C(F)(F)F)c2)c(-c2nnn(Cc3ccccc3F)n2)c1 [Compound 27, 3-(2-(2-fluorobenzyl)-2H-tetrazol-5-yl)-4-((3-(trifluoromethyl)phenyl)amino) benzoic acid]	≤ 100
O=C(O)c1ccc(Nc2ccc(C(F)(F)F)cc2)c(-c2cc(Cl)ccn2)c1 [Compound 55, 3-(4-chloro-2-pyridyl)-4-[4-(trifluoromethyl)anilino] benzoic acid]	≤ 100
CCN(CC)C(=O)c1ccc(Nc2ccc(C(F)(F)F)cc2)c(-c2nnn(C)n2)c1 [Compound 17, N,N-diethyl-3-(2-methyl-2H-tetrazol-5-yl)-4-((4-(trifluoromethyl)phenyl)amino) benzamide]	100 to 1000
CCNC(=O)c1ccc(Nc2ccc(C(F)(F)F)cc2)c(-c2nnn(C)n2)c1 [Compound 10, N-ethyl-3-(2-methyl-2H-tetrazol-5-yl)-4-((4-(trifluoromethyl)phenyl)amino) benzamide]	≤ 100

Reference: patent US11524943B1 (Vivace Therapeutics, Inc., priority 2017, dated 2022)
